Reference: ChEMBL document CHEMBL1136445, “Inhibitory effects on mitochondrial complex I of semisynthetic mono-tetrahydrofuran acetogenin derivatives” (Bioorg Med Chem Lett, 2003)

What was measured:
[1] = molecular target: Mitochondrial complex I; NADH oxidoreductase (Bos taurus, UniProt P25708+P52505); experiment: Inhibitory activity against NADH oxidase in beef heart mitochondrial complex I.; format: protein-complex assay
Bos taurus = species: Bos taurus; experiment: Inhibitory potency against NADH/DH oxidoreductase with respect to rotenone
[2] = Inhibitory activity against NADH/DH oxidoreductase in beef heart mitochondrial complex I.; parameters: species or system Bos taurus
[3] = molecular target: Mitochondrial complex I; NADH oxidoreductase (Bos taurus) (UniProt P25708+P52505); experiment: Inhibitory potency against NADH oxidase with respect to compound 2c; format: protein-complex assay

Sequence of Mitochondrial complex I; NADH oxidoreductase (P25708 21-464 limits assumed, other chains not shown): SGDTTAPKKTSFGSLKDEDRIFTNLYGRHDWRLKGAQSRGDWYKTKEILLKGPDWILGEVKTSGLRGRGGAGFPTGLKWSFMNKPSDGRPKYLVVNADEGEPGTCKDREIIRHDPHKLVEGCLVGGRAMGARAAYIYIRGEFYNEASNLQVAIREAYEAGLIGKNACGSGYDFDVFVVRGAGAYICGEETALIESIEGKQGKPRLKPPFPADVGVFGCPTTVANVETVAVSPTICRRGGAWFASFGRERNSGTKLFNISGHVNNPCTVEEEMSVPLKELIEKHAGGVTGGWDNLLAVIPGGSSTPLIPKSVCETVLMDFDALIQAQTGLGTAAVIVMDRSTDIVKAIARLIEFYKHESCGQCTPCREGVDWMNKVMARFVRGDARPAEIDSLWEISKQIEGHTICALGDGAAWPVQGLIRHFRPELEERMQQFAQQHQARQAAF

SMILES | IC50 [1] | Relative potency (Bos taurus) | IC50 [2] | Relative potency [3]
CCCCCCCCCCCC[C@H](O)[C@@H]1CC[C@@H]([C@@H](O)CCCC[C@@H](O)CCCCC[C@@H]2CC(CC(C)O)C(=O)O2)O1 (some centres not stated) | 5.8 nM | 1.1 | 51 nM | 8.2
CCCCCCCCCCCC[C@H](O)[C@@H]1CC[C@@H]([C@@H](O)CCCC[C@@H](O)CCCCC[C@@H](O)CC2(O)C(=O)O[C@@H](C)C2O)O1 (some centres not stated) | 21.8 nM | 4.27 | 55.2 nM | 31.1
CCCCCCCCCCCC[C@H](O)[C@@H]1CC[C@@H]([C@@H](O)CCCCC(=O)CCCCC[C@@H](O)CC2=C[C@H](C)OC2=O)O1 | 0.8 nM | 0.15 | 3.7 nM | 1.1
CCCCCCCCCCCC[C@H](O)[C@@H]1CC[C@@H]([C@@H](O)CCCC/C(CCCCC[C@@H](O)CC2=C[C@H](C)OC2=O)=N\O)O1 | 2.7 nM | 0.52 | 10.3 nM | 3.8
C=C(C)[C@H]1Cc2c(ccc3c2O[C@@H]2COc4cc(OC)c(OC)cc4[C@@H]2C3=O)O1 [ROTENONE] | 5.1 nM | 1 | 28.8 nM | 7.2
CCCCCCCCCCCC[C@H](O)[C@@H]1CC[C@@H]([C@@H](O)CCCC[C@@H](O)CCCCC[C@@H](O)CC2=C[C@H](C)OC2=O)O1 | 2.3 nM | 0.62 | 26.1 nM | 3.2
CCCCCCCCCCCC[C@H](O)[C@@H]1CC[C@@H]([C@@H](O)CCCCC(=O)CCCCC[C@@H]2CC(CC(C)=O)C(=O)O2)O1 (some centres not stated) | 0.7 nM | 0.13 | 1.1 nM | 1
CCCCCCCCCCCC[C@H](O)[C@@H]1CC[C@@H]([C@@H](O)CCCCC(CCCCC[C@@H](O)CC2=C[C@H](C)OC2=O)NCCc2ccc(OC)c(OCc3ccccc3)c2)O1 (some centres not stated) | > 150 nM |  | > 1200 nM | 
CCCCCCCCCCCC[C@H](O)[C@@H]1CC[C@@H]([C@@H](O)CCCC[C@@H](O)CCCCC[C@@H](O)CC2C[C@H](C)OC2=O)O1 (some centres not stated) | 3.6 nM | 0.7 | 19.9 nM | 5.1
CCCCCCCCCCCC[C@H](O)[C@@H]1CC[C@@H]([C@@H](O)CCCC[C@@H](O)CCCCC[C@@H]2CC(CC(C)=O)C(=O)O2)O1 (some centres not stated) | 3.3 nM | 0.64 | 14.6 nM | 4.7
CCCCCCCCCCCC[C@H](O)[C@@H]1CC[C@@H]([C@@H](O)CCCC[C@@H](O)CCCCC[C@@H]2CC(C/C(C)=N/O)C(=O)O2)O1 (some centres not stated) | 1.9 nM | 0.37 | 8.7 nM | 2.7
